In US7348301B2, “Lysozyme-based method and composition to control the growth of microorganisms in aqueous systems” (Buckman Laboratories International, Inc., priority 2006, dated 2008):

Legend:
[1] = test system: Chlorella sp. (ATCC 7516); assay: Evaluation of algaecidal activity (MIC, checkerboard synergy) against Chlorella sp.; format: cell-based; details: for [A]/MICA + [B]/MICB (Fractional Inhibitory Concentration Index, FIC): Chlorella sp., <1 denotes synergy; for MIC (ppm product): Chlorella sp. (ATCC 7516), 14 days at 24 C, 16 h light/8 h darkness, enzyme alone
Method: (§1) A. Evaluation of Algaecidal Activity. This test method provides a technique for testing compounds for their effectiveness to inhibit (repress) algae growth.
(§2) Cell suspension from a culture grown in modified Allen's medium for 14 days or as needed to attain a desired cell mass of Chlorella sp. (ATCC 7516) or Phormidium faveolarum (UTEX 427). The inoculum is calibrated at 82% transmittance measured at 590 nanometers wavelength before inoculation.
(§3) Sterilize the medium in the autoclave for 20 minutes at 15 pounds pressure (121° C.). After autoclaving, cool medium to 45-50° C. and dispense 5 ml of medium per test tube, then add the compound and the inoculum.
(§4) Prepare a stock solution in water of the compound to be tested. The concentration of the stock solution is dependent on the largest dosage desired to be tested. Dilute the stock solution to obtain dosages smaller than that chosen for the stock solution. A maximum amount of 100 microliters of stock solution or the corresponding dilution should be added per test tube.
• Add 100 microliters of inoculum per test tube, per type of medium and type of inoculum. Incubation: • Place the test tubes containing the treatments in an incubator set at 24° C. Light is provided by plant growth fluorescent tubes set to provide 16 h of light and 8 h of darkness. […] The minimum inhibitory concentration (MIC) of the compound is the smallest dosage showing negative algae growth. Synergy Evaluation:
Synergy was measured by checkerboards dilutions (Yan and Hancock, 2001), in which one compound is diluted along the rows of test tubes and the other is diluted along the columns. This method focuses on looking for a reduction in the MIC of each component in the presence of the other.

[2] = test system: Phormidium faveolarum (UTEX 427); assay: Evaluation of algaecidal activity (MIC, checkerboard synergy) against Phormidium faveolarum; format: cell-based; details: <1 denotes synergy
Method: as §1, §2, §3, §4
• Add 100 microliters of inoculum per test tube, per type of medium and type of inoculum. Incubation: • Place the test tubes containing the treatments in an incubator set at 24° C. […]
Synergy was measured by checkerboards dilutions (Yan and Hancock, 2001), in which one compound is diluted along the rows of test tubes and the other is diluted along the columns. […]

[Cl-].[Na+] [Sodium Chloride]
[A]/MICA + [B]/MICB (Fractional Inhibitory Concentration Index, FIC) ([1]; Example 10, 14 days): 1.000 | [A]/MICA + [B]/MICB (Fractional Inhibitory Concentration Index, FIC) ([2]; Example 11, 14 days): 1.00

Benzalkonium Chloride [reference compound]
[A]/MICA + [B]/MICB (Fractional Inhibitory Concentration Index, FIC) ([1]; Example 1, 18 days): 1.000 | [A]/MICA + [B]/MICB (Fractional Inhibitory Concentration Index, FIC) ([2]; Example 2, 18 days): 1.00

Lysozyme Chloride [Lysozyme Chloride (MP Biomedicals)]
MIC (ppm product) [1]: 0.1-0.4 ppm product

Lysozyme Chloride [Lysozyme Chloride (NutriScience)]
MIC (ppm product) [1]: 0.4-0.7 ppm product

Lysozyme [Lysozyme (Sigma)]
MIC (ppm product) [1]: 0.4-0.7 ppm product
